Source: US9725414B2, “Fungicidal N-bicycloalkyl and N-tricycloalkyl pyrazole-4-(thio)carboxamide derivatives” (priority 2011, dated 2017)
Like-named read-outs stand apart in the source and are kept apart here.

Columns and labels:
Pyrenophora teres [1] = assay: Example E: in vivo preventive test on Pyrenophora teres (barley), DMF/emulsifier preparation; details: 500 ppm of active ingredient, evaluated 7-9 days after inoculation
Protocol: In Vivo Preventive Test on Pyrenophora teres (Barley) Solvent: 49 parts by weight of N,N-dimethylformamide Emulsifier: 1 part by weight of alkylaryl polyglycol ether To produce a suitable preparation of active compound, 1 part by weight of active compound is mixed with the stated amounts of solvent and emulsifier, and the concentrate is diluted with water to the desired concentration. To test for preventive activity, young plants are sprayed with the preparation of active compound at the stated rate of application. One day after this treatment, the plants are inoculated with an aqueous spore suspension of Pyrenophora teres. The plants remain for 48 hours in an incubation cabinet at 22° C. and a relative atmospheric humidity of 100%.

Sphaerotheca fuliginea = assay: Example B: in vivo preventive test on Sphaerotheca fuliginea (powdery mildew on cucurbits), gherkin plants; details: 500 ppm of active ingredient, grading 12 days after contamination
Protocol: In Vivo Preventive Test on Sphaerotheca fuliginea (Powdery Mildew on Cucurbits) […] Gherkin plants (“Vert petit de Paris” variety), sown in starter cups on a 50/50 peat soil-pozzolana substrate and grown at 24° C. are treated at the Z11 cotyledon stage by spraying with the active ingredient prepared as described above. Plants, used as controls, are treated with the mixture of acetone/tween/DMSO/water not containing the active material. After 24 hours, the plants are contaminated by spraying the cotyledons with an aqueous suspension of Sphaerotheca fuliginea spores (100 000 spores per mL). The spores are collected from infected plants.

Puccinia recondita = assay: Example M: in vivo preventive test on Puccinia recondita (brown rust on wheat); details: 500 ppm of active ingredient, grading 12 days after contamination
Protocol: In Vivo Preventive Test on Puccinia recondita (Brown Rust on Wheat) […] Wheat plants (“Scipion” variety), sown in starter cups on a 50/50 peat soil pozzolana substrate and grown at 22° C., are treated at the 1 leaf stage (10 cm height) by spraying with the active ingredient prepared as described above. Plants, used as controls, are treated with the mixture of acetone/tween/DMSO/water not containing the active material. After 24 hours, the plants are contaminated by spraying the leaves with an aqueous suspension of Puccinia recondite spores (100 000 spores per mL). The spores are collected from an infected plant and are suspended in water containing 2.5 mL/L of Tween 80 at 10%. […] Grading (% of efficacy) is carried out 12 days after the contamination, in comparison with the control plants.

Alternaria solani = assay: Example C: in vivo preventive test on Alternaria solani (tomato); details: 500 ppm of active ingredient, evaluated 7 days after inoculation
Protocol: In Vivo Preventive Test on Alternaria solani (Tomato) Solvent: 49 parts by weight of N,N-dimethylformamide Emulsifier: 1 part by weight of alkylarylpolyglycolether To produce a suitable preparation of active compound, 1 part by weight of active compound is mixed with the stated amounts of solvent and emulsifier, and the concentrate is diluted with water to the desired concentration. To test for preventive activity, young plants are sprayed with the preparation of active compound at the stated rate of application. One day after this treatment, the plants are inoculated with an aqueous spore suspension of Alternaria solani. The plants remain for one day in an incubation cabinet at approximately 22° C. and a relative atmospheric humidity of 100%. Then the plants are placed in an incubation cabinet at approximately 20° C. and a relative atmospheric humidity of 96%.

Pyrenophora teres [2] = assay: Example F: in vivo preventive test on Pyrenophora teres (barley), acetone/tween/DMSO preparation; details: 500 ppm of active ingredient, barley, grading 14 days after contamination
Protocol: In Vivo Preventive Test on Pyrenophora teres (Barley) […] Barley plants (“Plaisant” variety), sown in starter cups on a 50/50 peat soil pozzolana substrate and grown at 22° C., are treated at the 1 leaf stage (10 cm height) by spraying with the active ingredient prepared as described above. Plants, used as controls, are treated with the mixture of acetone/tween/DMSO/water not containing the active material. After 24 hours, the plants are contaminated by spraying the leaves with an aqueous suspension of Pyrenophora teres spores (12 000 spores per mL). The spores are collected from a 12-day-old culture. […] Grading (% of efficacy) is carried out 14 days after the contamination, in comparison with the control plants.

Septoria tritici = assay: Example I: in vivo preventive test on Septoria tritici (wheat), acetone/tween/DMSO preparation; details: 500 ppm of active ingredient, grading 24 days after contamination
Protocol: In Vivo Preventive Test on Septoria tritici (Wheat) […] Wheat plants (“Scipion” variety), sown in starter cups on a 50/50 peat soil pozzolana substrate and grown at 22° C., are treated at the 1 leaf stage (10 cm height) by spraying with the active ingredient prepared as described above. Plants, used as controls, are treated with the mixture of acetone/tween/DMSO/water not containing the active material. After 24 hours, the plants are contaminated by spraying the leaves with an aqueous suspension of cryopreserved Septoria tritici spores (500 000 spores per mL). The contaminated wheat plants are incubated for 72 hours at 18° C. and at 100% relative humidity, and then for 21 days at 90% relative humidity. Grading (% of efficacy) is carried out 24 days after the contamination, in comparison with the control plants.

[3] = log P by HPLC on reversed-phase column (C 18), EEC Directive 79831 Annex V.A8; type: physicochemical
Protocol: In table 1, the log P values were determined in accordance with EEC Directive 79831 Annex V.A8 by HPLC (High Performance Liquid Chromatography) on a reversed-phase column (C 18), using the method described below: Temperature: 40° C.; Mobile phases: 0.1% aqueous formic acid and acetonitrile; linear gradient from 10% acetonitrile to 90% acetonitrile. Calibration was carried out using unbranched alkan-2-ones (comprising 3 to 16 carbon atoms) with known log P values (determination of the log P values by the retention times using linear interpolation between two successive alkanones). lambda-max-values were determined using UV-spectra from 200 nm to 400 nm and the peak values of the chromatographic signals.

[4] = HPLC reversed-phase C 18, 40° C., 0.1% aqueous formic acid and acetonitrile gradient, several values = mixture of two or more isomers

logP [3]	SMILES	Efficacy (Pyrenophora teres [1]) [%]	Efficacy (Alternaria solani) [%]	further results
–	Cn1cc(C(=O)N(C2CC2)C2CCC3CCCC3C2)c(C(F)F)n1 (mixture of isomers) [Example 23]	100	80	Efficacy (Sphaerotheca fuliginea): 83%; Efficacy (Puccinia recondita): 81%
–	Cn1cc(C(=O)NC2CCCC3CCCCC32)c(C(F)F)n1 (mixture of isomers) [Example 29]	–	–	Efficacy (Sphaerotheca fuliginea): 95%
–	Cn1nc(C(F)F)c(C(=O)NC2CCCC3CCCCC32)c1Cl (mixture of isomers) [Example 30]	–	–	Efficacy (Sphaerotheca fuliginea): 100%
–	Cn1cc(C(=O)N(C2CC2)C2CCCC3CCCCC32)c(C(F)F)n1 (mixture of isomers) [Example 33]	–	–	Efficacy (Pyrenophora teres [2]): 100%; Efficacy (Sphaerotheca fuliginea): 94%; Efficacy (Septoria tritici): 92%
–	Cn1nc(C(F)F)c(C(=O)NC2CCC3CCCCC3C2)c1Cl (mixture of isomers) [Example 34]	70	95	–
–	Cn1nc(C(F)F)c(C(=O)NC2CCC3CCCCC3C2)c1F (mixture of isomers) [Example 35]	–	80	–
–	Cn1cc(C(=O)N(C2CC2)C2CCC3CCCCC3C2)c(C(F)F)n1 (mixture of isomers) [Example 36]	100	95	–
–	Cn1nc(C(F)F)c(C(=O)N(C2CC2)C2CCC3CCCCC3C2)c1Cl (mixture of isomers) [Example 37]	100	95	–
3.76	Cc1nn(C)c(F)c1C(=O)NC1CCCC2C1C(C)CC2(C)C (centres unmarked) [Example 15]	100	89	–
4.49	CC1CC(C)(C)C2CCCC(NC(=O)c3c(C(F)F)nn(C)c3Cl)C12 (centres unmarked) [Example 16]	100	–	–
4.00	CC1CC(C)(C)C2CCCC(NC(=O)c3cn(C)nc3C(F)(F)F)C12 (centres unmarked) [Example 17]	95	94	–
4.90	Cn1nc(C(F)F)c(C(=S)N(C2CC2)C2CCC3CCCC3C2)c1F (centres unmarked) [Example 24]	95	–	–
4.83	CC(C)N(C(=O)c1c(C(F)F)nn(C)c1Cl)C1CCCC2CCCCC21 (centres unmarked) [Example 26]	–	–	–
4.58	CC(C)N(C(=O)c1c(C(F)F)nn(C)c1F)C1CCCC2CCCCC21 (centres unmarked) [Example 27]	–	–	–
4.41	Cn1nc(C(F)F)c(C(=S)NC2CCCC3CCCCC32)c1F (centres unmarked) [Example 28]	95	70	–
3.92	Cn1nc(C(F)F)c(C(=O)NC2C3(C)CCC(C3)C2(C)C)c1Cl (centres unmarked) [Example 39]	–	–	–
3.70	Cn1nc(C(F)F)c(C(=O)NC2C3(C)CCC(C3)C2(C)C)c1F (centres unmarked) [Example 40]	–	–	–
3.35	Cn1cc(C(=O)NC2C3(C)CCC(C3)C2(C)C)c(C(F)F)n1 (centres unmarked) [Example 41]	–	–	–
2.34	Cn1nc(C(F)F)c(C(=O)NC2(C#N)CC3CCC2C3)c1Cl (centres unmarked) [Example 43]	–	–	–
1.97	Cn1cc(C(=O)NC2(C#N)CC3CCC2C3)c(C(F)F)n1 (centres unmarked) [Example 44]	–	–	–

logP [3]	SMILES	Efficacy (Pyrenophora teres [1]) [%]	Efficacy (Alternaria solani) [%]	further results
2.16	Cn1nc(C(F)F)c(C(=O)NC2(C#N)CC3CCC2C3)c1F (centres unmarked) [Example 45]	–	–	–
3.06	Cn1cc(C(=O)NC23CC4CC(CC(C4)C2)C3)c(C(F)F)n1 [Example 55]	–	–	–
3.96	Cn1nc(C(F)F)c(C(=O)N(CC2CCC3CCCC32)C2CC2)c1F (centres unmarked) [Example 58]	–	–	Efficacy (Pyrenophora teres [2]): 100%; Efficacy (Puccinia recondita): 98%
–	Cn1nc(C(F)F)c(C(=O)N(CC2CCC3CCCC3C2)C2CC2)c1Cl (centres unmarked) [Example 64]	–	–	logP [3, 4]: 4.59; Efficacy (Pyrenophora teres [2]): 71%; Efficacy (Sphaerotheca fuliginea): 89%; Efficacy (Puccinia recondita): 94%; Efficacy (Septoria tritici): 93%
4.82	CC1C(CN(C(=O)c2c(C(F)F)nn(C)c2Cl)C2CC2)CC2CC1C2(C)C (centres unmarked) [Example 79]	100	94	–
4.25	CC1C(CNC(=O)c2c(C(F)F)nn(C)c2Cl)CC2CC1C2(C)C (centres unmarked) [Example 80]	100	100	–
3.99	CC1C(CNC(=O)c2c(C(F)F)nn(C)c2F)CC2CC1C2(C)C (centres unmarked) [Example 81]	100	100	–
3.62	Cn1nc(C(F)F)c(C(=O)NCC2CCC3CC2C3(C)C)c1F (centres unmarked) [Example 84]	100	95	–
3.29	Cn1cc(C(=O)NCC23CC4CC(CC(C4)C2)C3)c(C(F)F)n1 [Example 87]	–	–	Efficacy (Sphaerotheca fuliginea): 79%; Efficacy (Puccinia recondita): 75%
–	Cn1nc(C(F)F)c(C(=O)NCC23CC4CC(CC(C4)C2)C3)c1Cl [Example 88]	–	100	logP [3, 4]: 3.89
–	Cn1nc(C(F)F)c(C(=O)NCC23CC4CC(CC(C4)C2)C3)c1F [Example 89]	–	95	logP [3, 4]: 3.67
4.27	CC(NC(=O)c1c(C(F)F)nn(C)c1Cl)C12CC3CC(CC(C3)C1)C2 (centres unmarked) [Example 106]	90	100	–
4.03	CC(NC(=O)c1c(C(F)F)nn(C)c1F)C12CC3CC(CC(C3)C1)C2 (centres unmarked) [Example 107]	80	95	–
4.68	Cn1nc(C(F)F)c(C(=O)N(CC23CC4CC(CC(C4)C2)C3)C2CC2)c1Cl [Example 108]	–	–	–
4.49	Cn1nc(C(F)F)c(C(=O)N(CC23CC4CC(CC(C4)C2)C3)C2CC2)c1F [Example 109]	–	–	–
4.04	COc1nn(C)c(F)c1C(=O)N(CC12CC3CC(CC(C3)C1)C2)C1CC1 [Example 110]	–	–	–
3.92	Cn1cc(C(=O)N(CC23CC4CC(CC(C4)C2)C3)C2CC2)c(C(F)F)n1 [Example 111]	–	–	–
4.92	CC1CC1N(C(=O)c1c(C(F)(F)F)nn(C)c1F)C(C)C1CC2CCC1C2 (centres unmarked) [Example 112]	–	–	–
–	CC(NC1CC1)C12CC3CC(CC(C3)C1)C2 (centres unmarked) [N-[1-(adamantan-1-yl)ethyl]cyclopropanamine]	–	–	chromatographic logP [3]: 5.82
